Converted amounts (≈) assume the structure as drawn. Where two headings read alike, the source gives them in different places.
Key:
[1] = tested on: E. coli control strain lacking a β-lactamase; assay: microbe, parasite or virus in culture; type: cell-based; settings: Escherichia coli, no KPC expressed, BLIs at fixed 4 μg/mL
[2] = tested on: engineered E. coli strain expressing KPC-2 wt; assay: microbe, parasite or virus in culture; type: cell-based; settings: Escherichia coli; KPC-2 wt strain; BLIs at fixed 4 μg/mL
[3] = tested on: engineered E. coli strain expressing KPC-2^V240G; assay: microbe, parasite or virus in culture; type: cell-based; settings: Escherichia coli, BLIs at fixed 4 μg/mL
[4] = tested on: engineered E. coli strain expressing KPC-2^D179Y; assay: microbe, parasite or virus in culture; type: cell-based; settings: Escherichia coli, BLIs at fixed 4 μg/mL
[5] = tested on: engineered E. coli strain expressing KPC-2^D179Y/T243M; assay: microbe, parasite or virus in culture; type: cell-based; settings: Escherichia coli, BLIs at fixed 4 μg/mL
[6] = tested on: engineered E. coli strain expressing KPC-3 wt; assay: microbe, parasite or virus in culture; type: cell-based; settings: Escherichia coli; KPC-3 wt strain; BLIs at fixed 4 μg/mL
[7] = tested on: engineered E. coli strain expressing KPC-3^V240G; assay: microbe, parasite or virus in culture; type: cell-based; settings: Escherichia coli, BLIs at fixed 4 μg/mL
[8] = tested on: engineered E. coli strain expressing KPC-3^D179Y; assay: microbe, parasite or virus in culture; type: cell-based; settings: Escherichia coli, BLIs at fixed 4 μg/mL
[9] = tested on: engineered E. coli strain expressing KPC-3^D179Y/T243M; assay: microbe, parasite or virus in culture; type: cell-based; settings: Escherichia coli, BLIs at fixed 4 μg/mL
KPC-2 WT [10] = target: T1, KPC-2 WT (Klebsiella pneumoniae, UniProt Q9F663); assay: biochemical; settings: inhibition of CENTA hydrolysis, read-out: Apparent affinity Ki^app
KPC-3 WT [11] = target: T2, KPC-3 WT (Klebsiella pneumoniae, UniProt Q9F663, H272Y); assay: biochemical; settings: inhibition of CENTA hydrolysis, read-out: Apparent affinity Ki^app
KPC-2^V240G = KPC-2^V240G (Klebsiella pneumoniae, UniProt Q9F663, V239G); assay: Inhibition kinetics (CENTA hydrolysis, jump dilution), KPC-2 V240G; type: biochemical; settings: for Kd: estimated from ratio koff / k2/K; for koff: jump dilution
Procedure: (§1) Measurements to determine kinetic parameters for hydrolysis, and kinetic parameters for inhibition were performed at ambient temperature in PBS (pH 7.4) containing 0.1 mg/mL bovine serum albumin, using a PowerWaveXS plate reader (BioTek).
(§2) Second-order rate constants (k2/K) denoting the inactivation efficiency of BLIs were determined by continuously measuring CENTA (100 µM) hydrolysis ([28]) in the presence of various concentrations of BLI. Progress curves were fit to equation 3 using GraphPad Prism, where Ai and A0 are the measured and basal absorbance, vi and vs are initial and final velocity, and t is time in seconds. k2/K was derived with equation 4. Koff was determined by the jump dilution method ([24]). Kd was estimated from the ratio between koff and k2/K.
(§3) (3) Ai=A0+vst(vi-vs)[1-e^-(kobs)t/kobs]
(§4) (4) kobs=k-2+(k2/KI)[I]/1+[S]/KM

KPC-2^D179Y = KPC-2^D179Y (Klebsiella pneumoniae, UniProt Q9F663, D178Y); assay: Inhibition kinetics (CENTA hydrolysis, jump dilution), KPC-2 D179Y; type: biochemical; settings: for Kd: estimated from ratio koff / k2/K; for koff: jump dilution
Procedure: as §1, §2, §3, §4

KPC-2^D179Y/T243M = KPC-2^D179Y/T243M (Klebsiella pneumoniae, UniProt Q9F663, D178Y/T242M); assay: Inhibition kinetics (CENTA hydrolysis, jump dilution), KPC-2 D179Y/T243M; type: biochemical; settings: for Kd: estimated from ratio koff / k2/K; for koff: jump dilution
Procedure: as §1, §2, §3, §4

KPC-3 WT [12] = target: T2, KPC-3 WT; assay: Inhibition kinetics (CENTA hydrolysis, jump dilution), KPC-3 wt; type: biochemical; settings: for Kd: estimated from ratio koff / k2/K; for koff: jump dilution
Procedure: as §1, §2, §3, §4

KPC-3^V240G = KPC-3^V240G (Klebsiella pneumoniae, UniProt Q9F663, H272Y/V239G); assay: Inhibition kinetics (CENTA hydrolysis, jump dilution), KPC-3 V240G; type: biochemical; settings: for Kd: estimated from ratio koff / k2/K; for koff: jump dilution
Procedure: as §1, §2, §3, §4

KPC-3^D179Y = KPC-3^D179Y (Klebsiella pneumoniae, UniProt Q9F663, D178Y/H272Y); assay: Inhibition kinetics (CENTA hydrolysis, jump dilution), KPC-3 D179Y; type: biochemical; settings: for Kd: estimated from ratio koff / k2/K; for koff: jump dilution
Procedure: as §1, §2, §3, §4

KPC-3^D179Y/T243M = KPC-3^D179Y/T243M (Klebsiella pneumoniae, UniProt Q9F663, D178Y/H272Y/T242M); assay: Inhibition kinetics (CENTA hydrolysis, jump dilution), KPC-3 D179Y/T243M; type: biochemical; settings: for Kd: estimated from ratio koff / k2/K; for koff: jump dilution
Procedure: as §1, §2, §3, §4

[13] = tested on: KPC-3^D179Y and KPC-3^D179Y/T243M; assay: Inhibition kinetics, summary for KPC-3 D179Y variants; type: biochemical, Klebsiella pneumoniae; settings: range over TAN, LED, AVI and both KPC-3 D179Y variants
Procedure: as §1, §2, §3, §4

KPC-2 WT [14] = target: T1, KPC-2 WT; settings: previously reported; cited from earlier work
[15] = tested on: E. coli strains expressing KPC-2^D179Y or KPC-2^D179Y/T243M; assay: microbe, parasite or virus in culture; type: cell-based
KPC-2 WT [16] = target: T1, KPC-2 WT; type: biochemical
Procedure: as §1, §2, §3, §4

[17] = pH 7.4, inactivation efficiency, read-out: k2/K

Nc1nc(/C(=C/CC(=O)O)C(=O)N[C@@H]2C(=O)N3C(C(=O)O)=CCS[C@H]23)cs1 [CTB, ceftibuten]
MIC [1]: 1 µg/mL (≈ 2.44 µM)
MIC [2]: 16 µg/mL (≈ 39 µM)
MIC [3]: 64 µg/mL (≈ 156 µM)
MIC [4]: 16 µg/mL (≈ 39 µM)
MIC [5]: 16 µg/mL (≈ 39 µM)
MIC [6]: 32 µg/mL (≈ 78 µM)
MIC [7]: 32 µg/mL (≈ 78 µM)
MIC [8]: 32 µg/mL (≈ 78 µM)
MIC [9]: 16 µg/mL (≈ 39 µM)
Ki (KPC-2 WT [10]): 159000 ± 10000 nM
Ki (KPC-3 WT [11]): 368000 ± 26000 nM

CCC(=O)N[C@H]1Cc2cccc(C(=O)O)c2OB1O [LED, ledaborbactam]
t1/2 (KPC-2^V240G): 32 ± 1 min
Kd (KPC-2^V240G): 12 nM
koff (KPC-2^V240G; read-out: koff): 0.00037 s⁻¹
kinact/KI (KPC-2^V240G; [17]): 31000 M⁻¹ s⁻¹
t1/2 (KPC-2^D179Y; KPC-2 D179Y): 16.7 ± 0.5 min
Kd (KPC-2^D179Y; KPC-2 D179Y): 1300 nM
koff (KPC-2^D179Y; KPC-2 D179Y, read-out: koff): 0.00069 s⁻¹
kinact/KI (KPC-2^D179Y; pH 7.4, inactivation efficiency, KPC-2 D179Y, read-out: k2/K): 520 M⁻¹ s⁻¹
t1/2 (KPC-2^D179Y/T243M; KPC-2 D179Y/T243M): 18.6 ± 2.7 min
Kd (KPC-2^D179Y/T243M; KPC-2 D179Y/T243M): 1500 nM
koff (KPC-2^D179Y/T243M; KPC-2 D179Y/T243M, read-out: koff): 0.00063 s⁻¹
kinact/KI (KPC-2^D179Y/T243M; pH 7.4, inactivation efficiency, KPC-2 D179Y/T243M, read-out: k2/K): 430 M⁻¹ s⁻¹
t1/2 (KPC-3 WT [12]): 19.6 ± 0.2 min
Kd (KPC-3 WT [12]): 220 nM
koff (KPC-3 WT [12]; read-out: koff): 0.00059 s⁻¹
kinact/KI (KPC-3 WT [12]; [17]): 2700 M⁻¹ s⁻¹
t1/2 (KPC-3^V240G): 19.3 ± 0.4 min
Kd (KPC-3^V240G): 46 nM
koff (KPC-3^V240G; read-out: koff): 0.0006 s⁻¹
kinact/KI (KPC-3^V240G; [17]): 13000 M⁻¹ s⁻¹
t1/2 (KPC-3^D179Y): 17.2 ± 0.3 min
Kd (KPC-3^D179Y): 1250 nM
koff (KPC-3^D179Y; read-out: koff): 0.00067 s⁻¹
kinact/KI (KPC-3^D179Y; [17]): 540 M⁻¹ s⁻¹
t1/2 (KPC-3^D179Y/T243M): 18.1 ± 2.2 min
Kd (KPC-3^D179Y/T243M): 620 nM
koff (KPC-3^D179Y/T243M; read-out: koff): 0.00065 s⁻¹
kinact/KI (KPC-3^D179Y/T243M; [17]): 1000 M⁻¹ s⁻¹
reduced inactivation efficiencies relative to KPC-3^wt [13]: 2–14 fold
Kd (KPC-2 WT [14]): 9 nM
k2/K (KPC-2 WT [14]): (2.9 ± 0.07) × 10^4 M^−1⋅s^−1
koff (KPC-2 WT [14]): (2.5 ± 0.1) × 10^−4 s^−1

C[C@@H](O)[C@H]1C(=O)N2C(C(=O)O)=C(S[C@@H]3CN[C@H](C(=O)N(C)C)C3)[C@H](C)[C@H]12 [MEM, meropenem]
MIC [1]: 0.03 µg/mL (≈ 0.0782 µM)
MIC [2]: 32 µg/mL (≈ 83.4 µM)
MIC [3]: 8 µg/mL (≈ 20.9 µM)
MIC [4]: 0.25 µg/mL (≈ 0.652 µM)
MIC [5]: 0.25 µg/mL (≈ 0.652 µM)
MIC [6]: 16 µg/mL (≈ 41.7 µM)
MIC [7]: 16 µg/mL (≈ 41.7 µM)
MIC [8]: 0.12 µg/mL (≈ 0.313 µM)
MIC [9]: 0.12 µg/mL (≈ 0.313 µM)
MIC increase relative to the control strain [15]: eightfold

NCCN[C@H]1CC[C@H](CC(=O)N[C@H]2Cc3cccc(C(=O)O)c3OB2O)CC1 [TAN, taniborbactam]
t1/2 (KPC-2 WT [16]): 104 ± 2.3 min
Kd (KPC-2 WT [16]; estimated from ratio koff / k2/K): 11 nM
k2/K (KPC-2 WT [16]; inactivation efficiency, CENTA 100 µM): (0.9 ± 0.02) × 10^4 M^−1⋅s^−1
koff (KPC-2 WT [16]; jump dilution): (1.0 ± 0.04) × 10^−4 s^−1
t1/2 (KPC-2^V240G): 106 ± 2.3 min
Kd (KPC-2^V240G): 55 nM
k2/K (KPC-2^V240G; inactivation efficiency): (0.2 ± 0.02) × 10^4 M^−1⋅s^−1
koff (KPC-2^V240G): (1.1 ± 0.03) × 10^−4 s^−1
t1/2 (KPC-2^D179Y; KPC-2 D179Y): 231 ± 19.4 min
Kd (KPC-2^D179Y; KPC-2 D179Y): 2900 nM
koff (KPC-2^D179Y; KPC-2 D179Y): (5.0 ± 0.4) × 10^−5 s^−1
reduction in k2/K (KPC-2^D179Y; KPC-2^D179Y relative to KPC-2 wt): roughly 500 fold
k2/K (KPC-2^D179Y; inactivation efficiency, KPC-2 D179Y): 17 ± 0.7 M^−1⋅s^−1
t1/2 (KPC-2^D179Y/T243M; KPC-2 D179Y/T243M): 222.3 ± 13.7 min
Kd (KPC-2^D179Y/T243M; KPC-2 D179Y/T243M): 3400 nM
koff (KPC-2^D179Y/T243M; KPC-2 D179Y/T243M): (5.2 ± 0.3) × 10^−5 s^−1
reduction in k2/K (KPC-2^D179Y/T243M; KPC-2^D179Y/T243M relative to KPC-2 wt): ~600 fold
k2/K (KPC-2^D179Y/T243M; inactivation efficiency, KPC-2 D179Y/T243M): 15.2 ± 0.1 M^−1⋅s^−1
t1/2 (KPC-3 WT [12]): 34 ± 4 min
Kd (KPC-3 WT [12]): 9 nM
k2/K (KPC-3 WT [12]; inactivation efficiency): (3.9 ± 0.4) × 10^4 M^−1⋅s^−1
koff (KPC-3 WT [12]): (3.5 ± 0.4) × 10^−4 s^−1
t1/2 (KPC-3^V240G): 14.4 ± 0.7 min
Kd (KPC-3^V240G): 18 nM
k2/K (KPC-3^V240G; inactivation efficiency): (4.4 ± 0.9) × 10^4 M^−1⋅s^−1
koff (KPC-3^V240G): (8.0 ± 0.4) × 10^−4 s^−1
t1/2 (KPC-3^D179Y): 14.3 ± 1.2 min
Kd (KPC-3^D179Y): 290 nM
k2/K (KPC-3^D179Y; inactivation efficiency): (2.8 ± 0.2) × 10^3 M^−1⋅s^−1
koff (KPC-3^D179Y): (8.1 ± 0.7) × 10^−4 s^−1
t1/2 (KPC-3^D179Y/T243M): 14.6 ± 5 min
Kd (KPC-3^D179Y/T243M): 193 nM
k2/K (KPC-3^D179Y/T243M; inactivation efficiency): (4.4 ± 0.7) × 10^3 M^−1⋅s^−1
koff (KPC-3^D179Y/T243M): (8.5 ± 2.5) × 10^−4 s^−1
reduced inactivation efficiencies relative to KPC-3^wt [13]: 2–14 fold

Source: publication PMC11881561 (Antimicrobial Agents and Chemotherapy, 2025)
